Experiment [1] addresses T1, human α1H T-type channels (Homo sapiens, UniProt O95180).
T1 construct: expressed in transfected cells; host or cells: HEK 293
Briefly: T-type calcium channel block, whole cell patch clamp (α1H). Particulars: HEK cells stably expressing human α1H; mainly non-inactivated protocol; values above 10 μM represented as 10 μM. The experiment is classed as cell-based. The procedure, abridged:
(§1)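 Resting block was measured mainly with the non-inactivated protocol: holding potential −110 mV, 1 s step to −100 mV, then a 50 ms test pulse at −40 mV. Recordings used stably transfected human α1G or α1H HEK293 lines, with compounds perfused in external solution containing 0.1-0.01% DMSO. IC50 values (μM) above 10 μM are reported as 10 μM.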

For experiment [2], the target named is T2, human α1G T-type channels (Homo sapiens, UniProt O43497).
T2 construct: expressed in transfected cells; host or cells: HEK 293
T2 sequence (O43497 whole entry): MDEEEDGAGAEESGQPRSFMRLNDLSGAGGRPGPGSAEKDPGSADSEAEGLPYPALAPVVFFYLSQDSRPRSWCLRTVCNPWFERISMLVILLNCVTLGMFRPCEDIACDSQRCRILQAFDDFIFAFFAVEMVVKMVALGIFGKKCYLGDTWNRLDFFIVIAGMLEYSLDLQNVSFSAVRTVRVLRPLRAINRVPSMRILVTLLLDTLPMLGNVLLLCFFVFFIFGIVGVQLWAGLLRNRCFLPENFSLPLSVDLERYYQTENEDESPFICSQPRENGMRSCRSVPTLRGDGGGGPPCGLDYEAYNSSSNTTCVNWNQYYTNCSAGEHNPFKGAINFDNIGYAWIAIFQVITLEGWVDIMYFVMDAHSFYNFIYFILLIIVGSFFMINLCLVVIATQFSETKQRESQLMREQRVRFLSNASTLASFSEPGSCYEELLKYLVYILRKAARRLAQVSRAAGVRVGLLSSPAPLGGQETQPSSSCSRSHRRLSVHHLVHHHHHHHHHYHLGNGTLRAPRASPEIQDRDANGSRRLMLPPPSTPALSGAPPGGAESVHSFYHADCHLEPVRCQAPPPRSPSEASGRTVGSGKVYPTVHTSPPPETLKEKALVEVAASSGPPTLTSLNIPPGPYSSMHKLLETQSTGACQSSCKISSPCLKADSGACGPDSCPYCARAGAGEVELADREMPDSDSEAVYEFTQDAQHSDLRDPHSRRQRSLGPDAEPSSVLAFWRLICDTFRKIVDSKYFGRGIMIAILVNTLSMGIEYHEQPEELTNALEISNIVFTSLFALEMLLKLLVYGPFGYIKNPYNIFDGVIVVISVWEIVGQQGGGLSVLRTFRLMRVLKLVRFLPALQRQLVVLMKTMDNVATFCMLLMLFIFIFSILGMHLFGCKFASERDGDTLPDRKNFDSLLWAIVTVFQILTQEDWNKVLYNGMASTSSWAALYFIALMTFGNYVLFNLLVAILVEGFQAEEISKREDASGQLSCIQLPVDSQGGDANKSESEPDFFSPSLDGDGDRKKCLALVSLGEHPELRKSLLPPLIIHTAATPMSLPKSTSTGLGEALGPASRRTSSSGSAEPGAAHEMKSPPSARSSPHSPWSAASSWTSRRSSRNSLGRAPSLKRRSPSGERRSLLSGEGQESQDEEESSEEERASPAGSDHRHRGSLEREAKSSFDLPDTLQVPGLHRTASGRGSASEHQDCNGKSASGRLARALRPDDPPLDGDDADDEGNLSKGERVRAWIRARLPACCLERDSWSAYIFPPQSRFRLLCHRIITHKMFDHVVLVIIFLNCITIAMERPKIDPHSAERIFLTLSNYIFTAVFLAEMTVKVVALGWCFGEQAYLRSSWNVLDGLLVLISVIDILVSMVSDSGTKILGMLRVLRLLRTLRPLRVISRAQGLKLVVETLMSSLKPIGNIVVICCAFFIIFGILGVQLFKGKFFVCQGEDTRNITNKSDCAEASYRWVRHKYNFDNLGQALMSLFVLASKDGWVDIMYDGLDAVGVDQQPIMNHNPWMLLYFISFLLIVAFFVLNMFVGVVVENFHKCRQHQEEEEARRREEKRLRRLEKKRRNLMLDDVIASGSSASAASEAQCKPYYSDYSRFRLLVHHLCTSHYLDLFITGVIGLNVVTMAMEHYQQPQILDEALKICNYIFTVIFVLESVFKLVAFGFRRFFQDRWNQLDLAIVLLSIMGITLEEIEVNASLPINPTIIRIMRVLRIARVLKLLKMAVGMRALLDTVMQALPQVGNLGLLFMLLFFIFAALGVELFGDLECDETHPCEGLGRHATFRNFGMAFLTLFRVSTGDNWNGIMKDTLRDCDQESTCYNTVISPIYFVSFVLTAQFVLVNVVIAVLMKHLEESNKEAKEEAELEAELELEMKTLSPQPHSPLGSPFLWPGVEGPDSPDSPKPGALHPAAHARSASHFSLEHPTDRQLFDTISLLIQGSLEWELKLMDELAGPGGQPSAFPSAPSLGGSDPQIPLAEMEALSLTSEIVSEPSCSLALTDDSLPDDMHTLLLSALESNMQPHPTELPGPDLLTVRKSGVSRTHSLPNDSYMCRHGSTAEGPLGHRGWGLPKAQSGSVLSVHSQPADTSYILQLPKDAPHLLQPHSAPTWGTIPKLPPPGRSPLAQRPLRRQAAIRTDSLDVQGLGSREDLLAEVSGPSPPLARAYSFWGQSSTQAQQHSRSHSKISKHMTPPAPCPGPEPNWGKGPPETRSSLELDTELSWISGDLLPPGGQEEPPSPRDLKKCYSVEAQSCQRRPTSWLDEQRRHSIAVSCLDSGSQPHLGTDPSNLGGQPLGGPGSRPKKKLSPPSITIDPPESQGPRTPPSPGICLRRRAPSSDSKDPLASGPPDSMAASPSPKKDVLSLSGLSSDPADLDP
Put plainly: T-type calcium channel block, whole cell patch clamp (α1G). Particulars: HEK cells stably expressing human α1G; mainly non-inactivated protocol; values above 10 μM represented as 10 μM, values below 0.30 μM represented as 0.30 μM. The experiment is classed as cell-based. Put shortly: as §1
(In general: The patch-clamp technique gives a direct electrical read-out from membranes.)

T1 sequence (O95180 whole entry): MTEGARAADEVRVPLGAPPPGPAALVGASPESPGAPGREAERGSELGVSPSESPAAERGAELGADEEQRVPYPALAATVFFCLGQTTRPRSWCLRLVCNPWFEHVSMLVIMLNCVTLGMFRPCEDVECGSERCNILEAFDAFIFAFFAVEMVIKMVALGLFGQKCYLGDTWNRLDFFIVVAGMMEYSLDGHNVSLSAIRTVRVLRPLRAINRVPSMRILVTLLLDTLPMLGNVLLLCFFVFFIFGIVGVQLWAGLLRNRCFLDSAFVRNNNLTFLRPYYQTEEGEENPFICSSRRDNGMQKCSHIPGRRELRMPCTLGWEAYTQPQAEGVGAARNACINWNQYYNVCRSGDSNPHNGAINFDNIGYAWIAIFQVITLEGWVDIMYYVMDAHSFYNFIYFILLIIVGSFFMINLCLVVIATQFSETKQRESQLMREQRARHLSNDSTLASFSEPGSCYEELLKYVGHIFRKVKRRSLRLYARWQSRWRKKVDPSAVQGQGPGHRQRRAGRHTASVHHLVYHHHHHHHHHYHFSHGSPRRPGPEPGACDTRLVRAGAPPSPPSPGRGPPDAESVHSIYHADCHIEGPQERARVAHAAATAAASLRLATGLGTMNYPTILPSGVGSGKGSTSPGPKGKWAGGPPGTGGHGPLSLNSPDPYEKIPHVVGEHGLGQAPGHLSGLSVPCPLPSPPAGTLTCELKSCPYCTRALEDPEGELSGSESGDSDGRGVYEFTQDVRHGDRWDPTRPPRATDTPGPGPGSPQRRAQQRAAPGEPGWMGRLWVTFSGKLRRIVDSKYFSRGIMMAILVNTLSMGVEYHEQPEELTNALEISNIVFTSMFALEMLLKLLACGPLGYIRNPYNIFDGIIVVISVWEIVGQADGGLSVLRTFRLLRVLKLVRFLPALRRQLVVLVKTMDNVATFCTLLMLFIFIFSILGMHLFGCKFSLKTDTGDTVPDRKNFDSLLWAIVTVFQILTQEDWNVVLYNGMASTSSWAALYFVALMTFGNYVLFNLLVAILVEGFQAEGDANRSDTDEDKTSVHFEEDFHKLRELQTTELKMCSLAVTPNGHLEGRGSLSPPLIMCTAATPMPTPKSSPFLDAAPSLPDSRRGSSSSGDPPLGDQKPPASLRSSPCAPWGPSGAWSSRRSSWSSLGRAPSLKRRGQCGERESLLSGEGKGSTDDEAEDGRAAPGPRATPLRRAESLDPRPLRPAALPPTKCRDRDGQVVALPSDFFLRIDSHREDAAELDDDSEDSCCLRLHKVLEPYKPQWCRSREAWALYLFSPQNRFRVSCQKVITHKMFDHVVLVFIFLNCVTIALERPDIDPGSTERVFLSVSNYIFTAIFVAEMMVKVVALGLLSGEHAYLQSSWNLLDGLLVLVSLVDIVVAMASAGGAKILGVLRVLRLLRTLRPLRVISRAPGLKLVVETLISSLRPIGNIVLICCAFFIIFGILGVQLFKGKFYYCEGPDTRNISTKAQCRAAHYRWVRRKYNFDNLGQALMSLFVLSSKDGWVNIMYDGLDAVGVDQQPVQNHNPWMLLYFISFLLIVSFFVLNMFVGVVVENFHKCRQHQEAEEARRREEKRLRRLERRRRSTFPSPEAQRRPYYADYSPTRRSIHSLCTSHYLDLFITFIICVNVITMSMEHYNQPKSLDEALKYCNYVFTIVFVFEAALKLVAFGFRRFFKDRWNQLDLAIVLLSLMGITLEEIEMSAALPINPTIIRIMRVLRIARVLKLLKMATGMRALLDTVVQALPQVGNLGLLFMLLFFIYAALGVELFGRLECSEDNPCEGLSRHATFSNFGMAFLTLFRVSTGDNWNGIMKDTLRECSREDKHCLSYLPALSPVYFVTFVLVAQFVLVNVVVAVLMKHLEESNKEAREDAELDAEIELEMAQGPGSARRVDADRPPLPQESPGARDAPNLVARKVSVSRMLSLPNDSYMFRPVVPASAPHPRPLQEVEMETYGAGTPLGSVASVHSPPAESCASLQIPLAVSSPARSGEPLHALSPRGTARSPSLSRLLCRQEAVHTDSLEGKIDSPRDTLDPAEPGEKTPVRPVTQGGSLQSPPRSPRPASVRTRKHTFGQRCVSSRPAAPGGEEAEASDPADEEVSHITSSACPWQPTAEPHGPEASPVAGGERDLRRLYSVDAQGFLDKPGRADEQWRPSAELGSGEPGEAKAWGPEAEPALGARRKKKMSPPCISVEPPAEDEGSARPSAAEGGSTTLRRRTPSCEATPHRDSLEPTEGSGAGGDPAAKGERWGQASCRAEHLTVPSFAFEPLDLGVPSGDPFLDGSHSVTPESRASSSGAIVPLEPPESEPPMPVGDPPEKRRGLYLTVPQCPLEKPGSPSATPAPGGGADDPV

As usually defined, the IC50 is the midpoint of a concentration-inhibition curve. On to `CCN(CC)C(=O)CN[C@H]1CC[C@H](CNC(=O)c2cc(C(F)(F)F)cc(C(F)(F)F)c2)CC1` [Compound 56, N-((trans-4-(2-(diethylamino)-2-oxoethylamino)cyclohexyl)methyl)-3,5-bis(trifluoromethyl)benzamide], for which the values for the IC50 in experiment [1] and in experiment [2] were 590 nM and 440 nM, respectively.
On the same counts, the results for `CCC(CC)NC(=O)CN[C@H]1CC[C@H](CNC(=O)c2cc(C(F)(F)F)cc(C(F)(F)F)c2)CC1` [Compound 57, N-((trans-4-(2-oxo-2-(pentan-3-ylamino)ethylamino)cyclohexyl)methyl)-3,5-bis(trifluoromethyl)benzamide] are 430 nM and not above 300 nM.
Taken in the same sequence, the figures for `O=C(CN[C@H]1CC[C@H](CNC(=O)c2cc(C(F)(F)F)cc(C(F)(F)F)c2)CC1)NCC(F)(F)F` [Compound 58, N-((trans-4-(2-oxo-2-(2,2,2-trifluoroethylamino)ethylamino)cyclohexyl)methyl)-3,5-bis(trifluoromethyl)benzamide] were 530 nM and 1000 nM.
Regarding `CN(C(=O)CN[C@H]1CC[C@H](CNC(=O)c2cc(C(F)(F)F)cc(C(F)(F)F)c2)CC1)C1CCCC1` [Compound 59, N-((trans-4-(2-(cyclopentyl(methyl)amino)-2-oxoethylamino)cyclohexyl)methyl)-3,5-bis(trifluoromethyl)benzamide], the values for the IC50 in experiment [1] and in experiment [2] were 620 nM and not above 300 nM, respectively.
As for `O=C(CN[C@H]1CC[C@H](CNC(=O)c2cc(C(F)(F)F)cc(C(F)(F)F)c2)CC1)NN1CCCCC1` [Compound 60, N-((trans-4-(2-oxo-2-(piperidin-1-ylamino)ethylamino)cyclohexyl)methyl)-3,5-bis(trifluoromethyl)benzamide], the IC50 in experiment [1] amounted to 1890 nM; in experiment [2], 1300 nM.
As to `O=C(NC[C@H]1CC[C@H](NCC(=O)N2CCC(F)(F)C2)CC1)c1cc(C(F)(F)F)cc(C(F)(F)F)c1` [Compound 61, N-((trans-4-(2-(3,3-difluoropyrrolidin-1-yl)-2-oxoethylamino)cyclohexyl)methyl)-3,5-bis(trifluoromethyl)benzamide], the IC50 is 1730 nM in experiment [1] and 1590 nM in experiment [2].
Take `C#CC(CC)(CC)NC(=O)CN[C@H]1CC[C@H](CNC(=O)c2cc(C(F)(F)F)cc(C(F)(F)F)c2)CC1` [Compound 62, N-((trans-4-(2-(3-ethylpent-1-yn-3-ylamino)-2-oxoethylamino)cyclohexyl)methyl)-3,5-bis(trifluoromethyl)benzamide]: the results for the IC50 in experiment [1] and in experiment [2] were 310 nM and not above 300 nM, respectively.
Taken in the same sequence, the figures for `COC1CCC(N(C)C(=O)CN[C@H]2CC[C@H](CNC(=O)c3cc(C(F)(F)F)cc(C(F)(F)F)c3)CC2)CC1` (stereo partly drawn) [Compound 65, N-((trans-4-(2-((4-methoxycyclohexyl)(methyl)amino)-2-oxoethylamino)cyclohexyl)methyl)-3,5-bis(trifluoromethyl)benzamide] were 7360 nM and 8020 nM.
Taken in the same sequence, the figures for `CC(C)(C)c1nc(CN[C@H]2CC[C@H](CNC(=O)c3cc(C(F)(F)F)cc(C(F)(F)F)c3)CC2)no1` [Compound 66, N-((trans-4-((5-tert-butyl-1,2,4-oxadiazol-3-yl)methylamino)cyclohexyl)methyl)-3,5-bis(trifluoromethyl)benzamide] were 3050 nM and 1340 nM.
On the same counts, the results for `Cc1cc(CN[C@H]2CC[C@H](CNC(=O)c3cc(C(F)(F)F)cc(C(F)(F)F)c3)CC2)no1` [Compound 67, N-((trans-4-((5-methylisoxazol-3-yl)methylamino)cyclohexyl)methyl)-3,5-bis(trifluoromethyl)benzamide] are 2890 nM and 5590 nM.
In the case of `CCC1CCCN1C(=O)CN[C@H]1CC[C@H](CNC(=O)c2cc(C(F)(F)F)cc(C(F)(F)F)c2)CC1` (stereo partly drawn) [Compound 68, N-((trans-4-(2-(2-ethylpyrrolidin-1-yl)-2-oxoethylamino)cyclohexyl)methyl)-3,5-bis(trifluoromethyl)benzamide], the figures for the 50% inhibitory concentration (IC50) in experiment [1] and in experiment [2] were 560 nM and not above 300 nM, respectively.
On the same counts, the results for `CC(C)CNC(=O)CN[C@H]1CC[C@@H](CNC(=O)c2cc(C(F)(F)F)cc(C(F)(F)F)c2)CC1` [Compound 70, N-((cis-4-(2-(isobutylamino)-2-oxoethylamino)cyclohexyl)methyl)-3,5-bis(trifluoromethyl)benzamide] are 210 nM and 330 nM.
On the same counts, the results for `CCC(C)NC(=O)CN[C@H]1CC[C@@H](CNC(=O)c2cc(C(F)(F)F)cc(C(F)(F)F)c2)CC1` (stereo partly drawn) [Compound 71, N-((cis-4-(2-(sec-butylamino)-2-oxoethylamino)cyclohexyl)methyl)-3,5-bis(trifluoromethyl)benzamide] are 270 nM and not above 300 nM.
For the compound `CC1CCCCN1C(=O)CN[C@H]1CC[C@@H](CNC(=O)c2cc(C(F)(F)F)cc(C(F)(F)F)c2)CC1` (stereo partly drawn) [Compound 72, N-((cis-4-(2-(2-methylpiperidin-1-yl)-2-oxoethylamino)cyclohexyl)methyl)-3,5-bis(trifluoromethyl)benzamide], the values for the IC50 in experiment [1] and in experiment [2] were 230 nM and not above 300 nM, respectively.
In the case of `Cc1ccc(NC(=O)CN[C@H]2CC[C@@H](CNC(=O)c3cc(C(F)(F)F)cc(C(F)(F)F)c3)CC2)nc1` [Compound 73, N-((cis-4-(2-(5-methylpyridin-2-ylamino)-2-oxoethylamino)cyclohexyl)methyl)-3,5-bis(trifluoromethyl)benzamide], the values for the IC50 in experiment [1] and in experiment [2] were 700 nM and 310 nM, respectively.
On the same counts, the results for `CC(C)NC(=O)CN[C@H]1CC[C@H](CNC(=O)c2cc(C(F)(F)F)cc(C(F)(F)F)c2)CC1` [Compound 74, N-((trans-4-(2-(isopropylamino)-2-oxoethylamino)cyclohexyl)methyl)-3,5-bis(trifluoromethyl)benzamide] are 650 nM and 2350 nM.
Taken in the same sequence, the figures for `CC(C)CNC(=O)CN[C@H]1CC[C@H](CNC(=O)c2cc(C(F)(F)F)cc(C(F)(F)F)c2)CC1` [Compound 75, N-((trans-4-(2-(isobutylamino)-2-oxoethylamino)cyclohexyl)methyl)-3,5-bis(trifluoromethyl)benzamide] were 430 nM and 810 nM.
On the same counts, the results for `CC1CCCCN1C(=O)CN[C@H]1CC[C@H](CNC(=O)c2cc(C(F)(F)F)cc(C(F)(F)F)c2)CC1` (stereo partly drawn) [Compound 76, N-((trans-4-(2-(2-methylpiperidin-1-yl)-2-oxoethylamino)cyclohexyl)methyl)-3,5-bis(trifluoromethyl)benzamide] are 615 nM and not above 300 nM.
As for `Cc1ccc(NC(=O)CN[C@H]2CC[C@H](CNC(=O)c3cc(C(F)(F)F)cc(C(F)(F)F)c3)CC2)nc1` [Compound 77, N-((trans-4-(2-(5-methylpyridin-2-ylamino)-2-oxoethylamino)cyclohexyl)methyl)-3,5-bis(trifluoromethyl)benzamide], the IC50 in experiment [1] was 1140 nM; in experiment [2], 730 nM.
On the same counts, the results for `O=C(CNC[C@H]1CC[C@H](NC(=O)c2cc(C(F)(F)F)cc(C(F)(F)F)c2)CC1)NCC(F)(F)F` [Compound 82, N-(trans-4-((2-oxo-2-(2,2,2-trifluoroethylamino)ethylamino)methyl)cyclohexyl)-3,5-bis(trifluoromethyl)benzamide] are 2090 nM and 2540 nM.
On the same counts, the results for `CC(C)(C)c1nc(CNC[C@H]2CC[C@H](NC(=O)c3cc(C(F)(F)F)cc(C(F)(F)F)c3)CC2)no1` [Compound 89, N-(trans-4-(((5-tert-butyl-1,2,4-oxadiazol-3-yl)methylamino)methyl)cyclohexyl)-3,5-bis(trifluoromethyl)benzamide] are 1950 nM and 1370 nM.
On the same counts, the results for `Cc1cc(CNC[C@H]2CC[C@H](NC(=O)c3cc(C(F)(F)F)cc(C(F)(F)F)c3)CC2)no1` [Compound 90, N-(trans-4-(((5-methylisoxazol-3-yl)methylamino)methyl)cyclohexyl)-3,5-bis(trifluoromethyl)benzamide] are 3860 nM and 3470 nM.
As for `CC(C)CNC(=O)CNC[C@H]1CC[C@H](NC(=O)c2cc(C(F)(F)F)cc(C(F)(F)F)c2)CC1` [Compound 93, N-(trans-4-((2-(isobutylamino)-2-oxoethylamino)methyl)cyclohexyl)-3,5-bis(trifluoromethyl)benzamide], the figures for the IC50 in experiment [1] and in experiment [2] were 1710 nM and 1380 nM, respectively.
Taken in the same sequence, the figures for `O=C(CNC[C@H]1CC[C@H](NC(=O)c2cc(C(F)(F)F)cc(C(F)(F)F)c2)CC1)Nc1ccccn1` [Compound 96, N-(trans-4-((2-oxo-2-(pyridin-2-ylamino)ethylamino)methyl)cyclohexyl)-3,5-bis(trifluoromethyl)benzamide] were 1040 nM and 540 nM.
Taken in the same sequence, the figures for `CC(C)(C)OC(=O)NCCN[C@H]1CC[C@@H](CNC(=O)c2cc(F)cc(C(F)(F)F)c2)CC1` [Compound 97, tert-butyl 2-(cis-4-((3-fluoro-5-(trifluoromethyl)benzamido)methyl)cyclohexylamino)ethylcarbamate] were 900 nM and 900 nM.
For `CC(C)(C)OC(=O)NCCN[C@H]1CC[C@@H](CNC(=O)c2cc(C(F)(F)F)cc(C(F)(F)F)c2)CC1` [Compound 98, tert-butyl 2-(cis-4-((3,5-bis(trifluoromethyl)benzamido)methyl)cyclohexylamino)ethylcarbamate], the IC50 in experiment [1] was 780 nM; in experiment [2], 410 nM.

The values above are taken from patent publication US20090298834A1, “4-(AMINOMETHYL)CYCLOHEXANAMINE DERIVATIVES AS CALCIUM CHANNEL BLOCKERS” (priority 2008, published 2009).
